Data: US10703751B2, “Amino-imidazopyridine derivatives as Janus kinase inhibitors and pharmaceutical use thereof” (LEO Pharma A/S, priority 2017, dated 2020)
Converted amounts (≈) assume the structure as drawn. “Also recorded” adds a separate entry of the source. Like-named read-outs stand apart in the source and are kept apart here.

What was measured:
[1] = target: CYP2C9 (Homo sapiens (Human), UniProt P11712); experiment: Reversible CYP inhibition, 2C9; type: in vitro ADME; conditions: up to 50 μM for Example 3, up to 25 μM for Examples 644 and 641
Protocol: (§1) Reversible CYP inhibition, time dependent CYP inhibition (TDI) and CYP induction was tested at Cyprotex PLC according to authority guidance.

[2] = target: panel of 23 Tyrosine kinases, including JAK1, and 68 Serine and Threonine kinases; experiment: Kinase selectivity panel at CARNA Biosciences; type: biochemical; conditions: inhibitor concentration approximately 1000 times JAK1 EC50
Protocol: The kinase selectivity profiles of Example 3 of the present invention as well as Examples 644 and 641 of WO2011086053 were evaluated at CARNA Biosciences Inc. with a panel consisting of 23 Tyrosine kinases, including JAK1 (ABL, CSK, EGFR, EPHA2, EPHB1, EPHB4, FGFR1, FLT3, IGF1R, ITK, JAK1, JAK3, KDR, […], PDGFRα, PDGFRβ, PYK2, SRC, TIE2, TRKA and TYRO3) as well as 68 Serine and Threonine kinases ([…], AKT1, AMPKα1/β1/γ1, AurA, AurB, AurC, BRSK2 ([ATP]=Km value), CaMK1a ([ATP]=Km value), CaMK2a ([ATP]=Km value), CaMK4, CDC2/CycB1, CDC7/ASK, CDK2/CycA2, CDK2/CyE1, CDK3/CyE1 ([ATP]=Km value), CDK4/CyD3, CDK6/CyD3, CDK7/CycH/MAT1, CDK9/CycT1, CHK1, CK1ε, CK2α1/β, CK2α2/β, CLK1, CLK2, DAPK1, DYRK1B, Erk2, GSK3α, GSK3β, HGK, IKKβ, IRAK4 ([ATP]=Km value), JNK2, LOK ([ATP]=Km value), MAPKAP2, MLK1, MLK2, MNK2 ([ATP]=Km value), MST1, MST2 ([ATP]=Km value), NEK1, NEK2, NEK6, NEK7, NEK9, p38α, p70S6K, PAK1 ([ATP]=Km value), PAK2, PAK5 ([ATP]=Km value), PBK, PDK1, PIM1, PIM2, PKACα, PKCα, OKD2, PKN1 ([ATP]=Km value), PLK1, PLK2 ([ATP]=Km value), ROCK1, RSK1, SGK, skMLCK ([ATP]=Km value) and TSSK1). […] The percentage of inhibition was measured at an inhibitor concentration of approximately 1000 times JAK1 EC50.

[3] = target: CYP1A2 (Homo sapiens (Human), UniProt P05177); experiment: Reversible CYP inhibition, 1A2; type: in vitro ADME
Protocol: as §1

[4] = target: JAK1 (Homo sapiens (Human), UniProt P23458); experiment: JAK1 kinase assay (HTRF); type: biochemical; conditions: for JAK2/JAK1 ratio / JAK3/JAK1 ratio: ratio of the respective EC50
Protocol: (§2) Human baculovirus-expressed Janus kinase (JAK) 1, 2, 3 and tyrosin kinase (TYK) 2 were purchased from Carna Biosciences, Inc (#08-144, -045, -046, -147 resp.). All four purified enzymes contain only the catalytic domain. JAK1 (aa 850-1154) and TYK2 (aa 871-1187) are expressed with an N-terminally fused GST-tag, and JAK2 and JAK3 with an N-terminally fused His-tag. Inhibition of phosphorylation of a synthetic peptide was measured in an HTRF-based assay (CisBio #62TKOPEC). First, 75 nL of test compound solution (100% DMSO) was added to a white shallow 384-well plate (NUNC #264706) using a Labcyte ECHO 550 liquid handler. Thereafter, 1 μL of compound dilution buffer (50 mM HEPES, 0.05% bovine serum albumin) and 2 μL of TK solution (TK substrate-biotin in kinase buffer [1× enzymatic buffer from HTRFKinEASE TK kit, 1 mM DTT]) was added. Then, 5 μL kinase-ATP mix (prepared in kinase buffer) was added to the wells and the plates were incubated at RT for 20 (JAK2, 3 and TYK2) to 40 (JAK1) min. For all four kinases a concentration of ATP that corresponded to the Km for ATP was used. The final concentrations of buffers, substrate, kinase and ATP were: JAK1: 50 mM Hepes buffer pH 7.0, 0.01% BSA, 10 mM MgCl2, 1 mM DTT, 7 μM ATP, 50 nM SEB, 1 μM TK Substrate-Biotin and 5 ng/well JAK1; JAK2: 50 mM Hepes buffer pH 7.0, 0.01% BSA, 5 mM MgCl2, 1 mM DTT, 4 μM ATP, 1 μM TK Substrate-Biotin and 0.1 ng/well JAK2; JAK3: 50 mM Hepes buffer pH 7.0, 0.01% BSA, 5 mM MgCl2, 1 mM DTT, 2 μM ATP, 1 μM TK Substrate-Biotin and 0.3 ng/well JAK3; TYK2: 50 mM Hepes buffer pH 7.0, 0.01% BSA, 5 mM MgCl2, 1 mM DTT, 13 μM ATP, 50 nM SEB, 1 μM TK Substrate-Biotin and 0.8 ng/well TYK2. Thereafter, the kinase reaction was stopped by adding 4 μL detection mix (final concentrations: 50 mM Hepes buffer pH 7.0, 0.01% BSA, 0.8 M KF, 20 mM EDTA, 42 nM Streptavidin-XL665 and 1:400 STK Ab Cryptate) and the plates were incubated overnight in the dark. A PerkinElmer Envision reader was used to quantify the HTRF signal using the following filters; 320 nm excitation filter, 665 nm emission filter and a 615 nm 2nd emission filter. A ratio ((665/615)×10^4) was calculated for each well.

[5] = Aqueous solubility of crystalline material; type: physicochemical; conditions: aqueous medium, aqueous buffer, thermodynamic from solid
Protocol: The aqueous solubility of crystalline Example 3, Example 644 and 641 of WO2011086053 at different pH's was evaluated.

[6] = target: JAK2 (Homo sapiens (Human), UniProt O60674); experiment: JAK2 kinase assay (HTRF); type: biochemical; conditions: ATP at Km (4 μM)
Protocol: as §2

[7] = reversible, up to 50 μM for Example 3, up to 25 μM for Examples 644 and 641, read-out: 1A2 IC50

JAK2, sequence (O60674 849-1124): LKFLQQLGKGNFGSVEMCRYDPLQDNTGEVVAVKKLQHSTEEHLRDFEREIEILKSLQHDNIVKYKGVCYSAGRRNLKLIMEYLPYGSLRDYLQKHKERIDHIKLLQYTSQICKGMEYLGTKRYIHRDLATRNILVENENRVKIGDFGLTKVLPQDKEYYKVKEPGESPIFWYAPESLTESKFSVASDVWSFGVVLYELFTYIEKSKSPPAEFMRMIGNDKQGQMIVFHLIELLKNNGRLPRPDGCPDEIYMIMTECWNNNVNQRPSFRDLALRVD
CYP1A2, sequence (P05177 whole entry): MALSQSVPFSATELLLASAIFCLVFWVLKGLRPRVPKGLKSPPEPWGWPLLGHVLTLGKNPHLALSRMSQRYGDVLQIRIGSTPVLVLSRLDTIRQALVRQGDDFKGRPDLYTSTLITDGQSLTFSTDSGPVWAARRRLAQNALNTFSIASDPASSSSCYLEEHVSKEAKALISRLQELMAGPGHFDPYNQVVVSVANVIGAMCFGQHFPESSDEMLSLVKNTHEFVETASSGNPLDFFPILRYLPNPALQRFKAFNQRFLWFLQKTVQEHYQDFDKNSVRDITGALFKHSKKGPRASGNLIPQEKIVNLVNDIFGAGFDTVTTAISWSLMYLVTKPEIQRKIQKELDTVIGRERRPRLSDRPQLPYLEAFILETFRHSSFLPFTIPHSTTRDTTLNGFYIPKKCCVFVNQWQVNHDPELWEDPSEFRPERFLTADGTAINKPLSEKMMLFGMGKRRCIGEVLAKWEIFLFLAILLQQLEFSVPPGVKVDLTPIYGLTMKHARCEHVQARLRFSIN
CYP2C9, sequence (P11712 whole entry): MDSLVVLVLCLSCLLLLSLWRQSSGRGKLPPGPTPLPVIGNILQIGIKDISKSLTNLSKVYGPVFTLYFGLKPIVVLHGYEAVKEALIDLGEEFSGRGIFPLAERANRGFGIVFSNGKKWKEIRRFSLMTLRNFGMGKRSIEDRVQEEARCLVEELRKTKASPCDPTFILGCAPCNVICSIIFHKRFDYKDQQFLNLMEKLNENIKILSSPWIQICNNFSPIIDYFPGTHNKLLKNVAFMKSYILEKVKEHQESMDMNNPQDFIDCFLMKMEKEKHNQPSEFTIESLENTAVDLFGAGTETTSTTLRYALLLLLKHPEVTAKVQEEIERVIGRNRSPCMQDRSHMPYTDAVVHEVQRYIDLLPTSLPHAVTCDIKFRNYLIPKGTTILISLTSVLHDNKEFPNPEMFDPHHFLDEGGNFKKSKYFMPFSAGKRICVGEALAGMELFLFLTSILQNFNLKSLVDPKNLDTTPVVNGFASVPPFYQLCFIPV
JAK1, sequence (P23458 850-1154): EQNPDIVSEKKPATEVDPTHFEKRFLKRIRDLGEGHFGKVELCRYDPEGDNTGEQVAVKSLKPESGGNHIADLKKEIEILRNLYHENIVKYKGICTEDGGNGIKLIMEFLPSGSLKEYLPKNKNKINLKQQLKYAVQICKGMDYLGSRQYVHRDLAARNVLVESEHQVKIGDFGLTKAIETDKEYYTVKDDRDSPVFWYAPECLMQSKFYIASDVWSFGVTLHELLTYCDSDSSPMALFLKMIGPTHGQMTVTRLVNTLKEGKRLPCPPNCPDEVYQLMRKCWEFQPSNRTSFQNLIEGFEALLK

| Structure (SMILES) | IC50 [1] [nM] | Kinases of the panel inhibited by 50% or more (summary) [2] | Tyrosine kinases inhibited by 50% or more at an ATP concentration of 1 mM (n ≥ 2) [2] | IC50 [3, 7] [nM] | EC50 ([4]; ATP at Km (7 μM)) [nM] | JAK2/JAK1 ratio [4] | JAK3/JAK1 ratio [4] | solubility ([5]; pH 2.0, crystalline material) [µg/mL] | solubility ([5]; pH 7.4, crystalline material) [µg/mL] | solubility ([5]; pH 9.0, crystalline material) [µg/mL] | EC50 [6] [nM] | Serine and Threonine kinases inhibited by 50% or more (n ≥ 2) [2] | IC50 [3] [nM] | EC50 [4] [nM] |
| --- | --- | --- | --- | --- | --- | --- | --- | --- | --- | --- | --- | --- | --- | --- |
| CNc1cc2c(cn1)nc([C@@H](C)O)n2[C@H]1CC[C@H](CC#N)CC1 [Example 3, trans-2-[4-[2-[(1R)-1-Hydroxyethyl]-6-(methylamino)imidazo[4,5-c]pyridin-1-yl]cyclohexyl]acetonitrile] | > 50000 | none of the tested kinases except JAK1 were inhibited by more than 50% | JAK1 | > 50000 | 3.48 | 51 | 489 | > 346000 | 12300 (≈ 39.2 mM) | 11100 (≈ 35.4 mM) | 171 |  |  |  |
| C[C@@H](O)c1nc2cnc3[nH]ccc3c2n1[C@H]1CC[C@H](CC#N)CC1 [Example 644 of WO2011086053] | > 25000 | inhibited nine other kinases besides JAK1 by 50% or more | JAK1 and FGFR1 and FLT3 and KDR and PDGFRα and PDGFRβ | > 25000 | 0.34 |  |  | 2470 (≈ 7.64 mM) | 136 (≈ 0.421 mM) | 9.9 (≈ 0.0306 mM) | 3.34 | BRSK2, [ATP] = 50 μM; also recorded: LOK, [ATP] = 100 μM; also recorded: MST2, [ATP] = 75 μM; also recorded: PKN1, [ATP] = 25 μM |  |  |
| C[C@@H](O)c1nc2cnc3[nH]ccc3c2n1[C@H]1CC[C@H](C#N)CC1 [Example 641 of WO2011086053] | > 25000 | inhibited nine other kinases besides JAK1 by 50% or more | JAK1 and FGFR1 and FLT3 and KDR and PDGFRα |  |  | 33 | 109 | 90000 (≈ 291 mM) | 2260 (≈ 7.31 mM) | 2280 (≈ 7.37 mM) | 228 | BRSK2, [ATP] = 50 μM; also recorded: LOK, [ATP] = 100 μM; also recorded: MST1, [ATP] = 1 mM; also recorded: MST2, [ATP] = 75 μM; also recorded: PKN1, [ATP] = 25 μM | > 25000 | 6.81 |
